Key:
Format in all cases: in vivo
[1] = tested on: barnyardgrass (Echinochloa crus-galli); test: Test A preemergence, barnyardgrass; conditions: 0 to 100 scale (0 no effect, 100 complete control)
In short: (§1)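 Visual injury scores (0 no effect to 100 complete control) taken about 10 days after treatment, relative to untreated plants. Treatments were directed soil spray at planting for preemergence, or foliar application to one- to two-leaf plants (2-10 cm) for postemergence, with surfactant-containing formulations in loam–sand pots.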

kochia (Kochia scoparia) [2] = test: Test A preemergence, kochia; conditions: 0 to 100 scale (0 no effect, 100 complete control)
In short: as §1

[3] = tested on: ragweed (common ragweed, Ambrosia elatior); test: Test A preemergence, ragweed; conditions: 0 to 100 scale (0 no effect, 100 complete control)
In short: as §1

[4] = tested on: ryegrass, Italian (Lolium multiflorum); test: Test A preemergence, Italian ryegrass; conditions: 0 to 100 scale (0 no effect, 100 complete control)
In short: as §1

[5] = tested on: foxtail, giant (Setaria faberii); test: Test A preemergence, giant foxtail; conditions: 0 to 100 scale (0 no effect, 100 complete control)
In short: as §1

[6] = tested on: pigweed (Amaranthus retroflexus); test: Test A preemergence, pigweed; conditions: 0 to 100 scale (0 no effect, 100 complete control)
In short: as §1

[7] = tested on: barnyardgrass (Echinochloa crus-galli); test: Test A postemergence, barnyardgrass; conditions: visual injury, 0 to 100 scale (0 no effect, 100 complete control), approximately 10 days
In short: as §1

kochia (Kochia scoparia) [8] = test: Test A postemergence, kochia; conditions: visual injury, 0 to 100 scale (0 no effect, 100 complete control), approximately 10 days
In short: as §1

[9] = tested on: ragweed (common ragweed, Ambrosia elatior); test: Test A postemergence, ragweed; conditions: visual injury, 0 to 100 scale (0 no effect, 100 complete control), approximately 10 days
In short: as §1

[10] = tested on: ryegrass, Italian (Lolium multiflorum); test: Test A postemergence, Italian ryegrass; conditions: visual injury, 0 to 100 scale (0 no effect, 100 complete control), approximately 10 days
In short: as §1

[11] = tested on: foxtail, giant (Setaria faberii); test: Test A postemergence, giant foxtail; conditions: visual injury, 0 to 100 scale (0 no effect, 100 complete control), approximately 10 days
In short: as §1

[12] = tested on: pigweed (Amaranthus retroflexus); test: Test A postemergence, pigweed; conditions: visual injury, 0 to 100 scale (0 no effect, 100 complete control), approximately 10 days
In short: as §1

[13] = tested on: blackgrass (Alopecurus myosuroides); test: Test A postemergence, blackgrass; conditions: visual injury, 0 to 100 scale (0 no effect, 100 complete control), approximately 10 days
In short: as §1

[14] = tested on: galium (catchweed bedstraw, Galium aparine); test: Test A postemergence, galium; conditions: visual injury, 0 to 100 scale (0 no effect, 100 complete control), approximately 10 days
In short: as §1

[15] = tested on: wheat (Triticum aestivum); test: Test A postemergence, wheat; conditions: visual injury, 0 to 100 scale (0 no effect, 100 complete control), approximately 10 days
In short: as §1

corn (Zea mays) = test: Test A postemergence, corn; conditions: visual injury, 0 to 100 scale (0 no effect, 100 complete control), approximately 10 days
In short: as §1

rice (Oryza sativa) = test: Test B flooded paddy test, rice; conditions: 250 g ai/ha, applied to paddy water, visual rating after 13 to 15 days, scale 0 (no effect) to 100 (complete control)
In short: (§2)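 Flooded 3 cm over soil; compound into paddy water; depth kept constant. Greenhouse 13–15 d.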

[16] = tested on: sedge, umbrella (small-flower umbrella sedge, Cyperus difformis); test: Test B flooded paddy test, umbrella sedge; conditions: 250 g ai/ha, applied to paddy water, visual rating after 13 to 15 days, scale 0 (no effect) to 100 (complete control)
In short: as §2

[17] = tested on: ducksalad (Heteranthera limosa); test: Test B flooded paddy test, ducksalad; conditions: 250 g ai/ha, applied to paddy water, visual rating after 13 to 15 days, scale 0 (no effect) to 100 (complete control)
In short: as §2

[18] = tested on: barnyardgrass (Echinochloa crus-galli); test: Test B flooded paddy test, barnyardgrass; conditions: 250 g ai/ha, applied to paddy water, visual rating after 13 to 15 days, scale 0 (no effect) to 100 (complete control)
In short: as §2

SMILES | Plant response rating, Barnyardgrass ([1]; 125 g ai/ha) | Plant response rating, Barnyardgrass ([1]; 500 g ai/ha) | Plant response rating, Kochia (kochia (Kochia scoparia) [2]; 125 g ai/ha) | Plant response rating, Kochia (kochia (Kochia scoparia) [2]; 500 g ai/ha) | Plant response rating, Ragweed ([3]; 125 g ai/ha) | Plant response rating, Ragweed ([3]; 500 g ai/ha) | Plant response rating, Ryegrass, Italian ([4]; 125 g ai/ha) | Plant response rating, Ryegrass, Italian ([4]; 500 g ai/ha) | Plant response rating, Foxtail, Giant ([5]; 125 g ai/ha) | Plant response rating, Foxtail, Giant ([5]; 500 g ai/ha) | Plant response rating, Pigweed ([6]; 125 g ai/ha) | Plant response rating, Pigweed ([6]; 500 g ai/ha) | Plant response rating, Barnyardgrass ([7]; 125 g ai/ha) | Plant response rating, Barnyardgrass ([7]; 500 g ai/ha) | Plant response rating, Kochia (kochia (Kochia scoparia) [8]; 125 g ai/ha) | Plant response rating, Kochia (kochia (Kochia scoparia) [8]; 500 g ai/ha) | Plant response rating, Ragweed ([9]; 125 g ai/ha) | Plant response rating, Ragweed ([9]; 500 g ai/ha) | Plant response rating, Ryegrass, Italian ([10]; 125 g ai/ha) | Plant response rating, Ryegrass, Italian ([10]; 500 g ai/ha) | other results
O=C1NCC(c2cccc(OCc3ccco3)c2)C1C(=O)Nc1ccccc1F (stereo not drawn) [Compound 10] | 0 | 0 | 0 | 0 | 0 | 0 | 0 | 0 | 0 | 0 | 0 | 0 | 10 | 60 | 0 | 0 | 0 | 0 | 0 | 0 | Plant response rating, Foxtail, Giant ([11]; 125 g ai/ha): 0; Plant response rating, Foxtail, Giant ([11]; 500 g ai/ha): 30; Plant response rating, Pigweed ([12]; 125 g ai/ha): 0; Plant response rating, Pigweed ([12]; 500 g ai/ha): 0; Plant response rating, Blackgrass ([13]; 125 g ai/ha): 0; Plant response rating, Blackgrass ([13]; 500 g ai/ha): 0; Plant response rating, Galium ([14]; 125 g ai/ha): 0; Plant response rating, Galium ([14]; 500 g ai/ha): 0; Plant response rating, Wheat ([15]; 125 g ai/ha): 0; Plant response rating, Wheat ([15]; 500 g ai/ha): 0; Plant response rating, Corn (corn (Zea mays); 125 g ai/ha): 0; Plant response rating, Corn (corn (Zea mays); 500 g ai/ha): 0; Plant response rating, Rice (Flood) (rice (Oryza sativa)): 0; Plant response rating, Sedge, Umbrella (Flood) [16]: 40; Plant response rating, Ducksalad (Flood) [17]: 60; Plant response rating, Barnyardgrass (Flood) [18]: 0
O=C1NCC(c2cccc(OCC3CC3)c2)C1C(=O)Nc1ccccc1F (stereo not drawn) [Compound 11] | 60 | 90 | 0 | 40 | 0 | 0 | 0 | 20 | 80 | 90 | 0 | 30 | 50 | 90 | 0 | 0 | 30 | 40 | 0 | 20 | Plant response rating, Foxtail, Giant ([11]; 125 g ai/ha): 50; Plant response rating, Foxtail, Giant ([11]; 500 g ai/ha): 90; Plant response rating, Pigweed ([12]; 125 g ai/ha): 0; Plant response rating, Pigweed ([12]; 500 g ai/ha): 20; Plant response rating, Blackgrass ([13]; 125 g ai/ha): 0; Plant response rating, Blackgrass ([13]; 500 g ai/ha): 40; Plant response rating, Galium ([14]; 125 g ai/ha): 0; Plant response rating, Galium ([14]; 500 g ai/ha): 30; Plant response rating, Wheat ([15]; 125 g ai/ha): 0; Plant response rating, Wheat ([15]; 500 g ai/ha): 20; Plant response rating, Corn (corn (Zea mays); 125 g ai/ha): 0; Plant response rating, Corn (corn (Zea mays); 500 g ai/ha): 20; Plant response rating, Rice (Flood) (rice (Oryza sativa)): 0; Plant response rating, Sedge, Umbrella (Flood) [16]: 0; Plant response rating, Ducksalad (Flood) [17]: 0; Plant response rating, Barnyardgrass (Flood) [18]: 0
O=C1NCC(c2cccc(OCC3CC3)c2)C1C(=O)Nc1cccc(F)c1F (stereo not drawn) [Compound 12] | 90 | 90 | 0 | 40 | 0 | 0 | 0 | 20 | 90 | 90 | 0 | 30 | 70 | 90 | 0 | 20 | 30 | 30 | 20 | 50 | Plant response rating, Foxtail, Giant ([11]; 125 g ai/ha): 70; Plant response rating, Foxtail, Giant ([11]; 500 g ai/ha): 90; Plant response rating, Pigweed ([12]; 125 g ai/ha): 0; Plant response rating, Pigweed ([12]; 500 g ai/ha): 20; Plant response rating, Blackgrass ([13]; 125 g ai/ha): 0; Plant response rating, Blackgrass ([13]; 500 g ai/ha): 60; Plant response rating, Galium ([14]; 125 g ai/ha): 0; Plant response rating, Galium ([14]; 500 g ai/ha): 50; Plant response rating, Wheat ([15]; 125 g ai/ha): 0; Plant response rating, Wheat ([15]; 500 g ai/ha): 50; Plant response rating, Corn (corn (Zea mays); 125 g ai/ha): 0; Plant response rating, Corn (corn (Zea mays); 500 g ai/ha): 60; Plant response rating, Rice (Flood) (rice (Oryza sativa)): 0; Plant response rating, Sedge, Umbrella (Flood) [16]: 0; Plant response rating, Ducksalad (Flood) [17]: 20; Plant response rating, Barnyardgrass (Flood) [18]: 0
